Laboratory results: ChEMBL document CHEMBL5036328, “Nonpeptidic, Polo-Box Domain-Targeted Inhibitors of PLK1 Block Kinase Activity, Induce Its Degradation and Target-Resistant Cells” (J Med Chem, 2021)
Calls of active or inactive are those of the source. The rule behind the calls is not given here.

How the values were obtained:
[1] = molecular target: T1, Serine/threonine-protein kinase PLK1 (Homo sapiens, UniProt P53350); assay: Binding affinity to […] (unknown origin) using MAGPMQS[pT]PLNGAKK tracer peptide as substrate by fluorescence polarization binding assay
T1 sequence (P53350 whole entry): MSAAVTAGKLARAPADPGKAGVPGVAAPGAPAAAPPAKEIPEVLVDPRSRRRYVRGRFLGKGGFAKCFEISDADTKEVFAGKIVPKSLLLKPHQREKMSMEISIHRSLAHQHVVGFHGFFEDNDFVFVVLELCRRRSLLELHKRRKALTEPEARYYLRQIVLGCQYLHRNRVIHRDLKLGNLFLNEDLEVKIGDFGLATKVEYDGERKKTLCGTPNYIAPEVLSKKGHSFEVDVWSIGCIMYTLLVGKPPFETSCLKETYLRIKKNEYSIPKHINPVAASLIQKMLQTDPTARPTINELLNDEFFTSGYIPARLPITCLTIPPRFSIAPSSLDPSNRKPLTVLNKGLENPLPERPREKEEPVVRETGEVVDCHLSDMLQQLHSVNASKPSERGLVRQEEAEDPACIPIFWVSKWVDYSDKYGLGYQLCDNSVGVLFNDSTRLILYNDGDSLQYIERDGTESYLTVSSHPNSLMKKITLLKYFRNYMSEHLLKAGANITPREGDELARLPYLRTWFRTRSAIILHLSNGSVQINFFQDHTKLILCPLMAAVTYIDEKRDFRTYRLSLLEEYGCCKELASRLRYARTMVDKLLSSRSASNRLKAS

HeLa = assay: Antiproliferative activity against human HeLa cells assessed as reduction in cell viability incubated for 72 hrs by MTT assay; assay type: functional, cell-based
PC-3 [2] = assay: Antiproliferative activity against human PC-3 cells assessed as reduction in cell viability incubated for 72 hrs by MTT assay; assay type: functional, cell-based; details: PC-3, 72 h
HRPE [3] = assay: Antiproliferative activity against human RPE cells expressing wild-type PLK1 assessed as reduction in cell viability after 72 hrs by MTT assay; assay type: functional, cell-based
HRPE [4] = assay: Antiproliferative activity against human RPE cells expressing C67V mutant PLK1 assessed as reduction in cell viability after 72 hrs by MTT assay; assay type: functional, cell-based
[5] = molecular target: T1, Serine/threonine-protein kinase PLK1; assay: Binding affinity to PLK1 in human PC-3 cells incubated for 2 hrs followed by heat shock for 10 mins by cellular thermal shift assay; assay type: cell-based
HRPE [6] = assay: Antiproliferative activity against human RPE cells expressing wild type PLK1 assessed as reduction in cell viability upto 120 uM after 72 hrs by MTT assay; assay type: functional, cell-based
[7] = molecular target: T1, Serine/threonine-protein kinase PLK1; assay: Inhibition of PLK1 in human PC-3 cells assessed as reduction in phosphorylation of TCTP at ser46 measured after 23 hrs in presence of colcemid by immunoblotting analysis; assay type: cell-based
[8] = molecular target: T1, Serine/threonine-protein kinase PLK1; assay: Induction of PLK1 degradation in human PC-3 cells upto 60 uM measured after 23 hrs by Western blot analysis; assay type: cell-based; details: dose microM <=60, time 23.0 hrs
PC-3 [9] = assay: Induction of cell cycle arrest in human PC-3 cells at 60 uM incubated for 23 hrs in presence of colcemid by flow cytometry analysis; assay type: functional, cell-based
HRPE [10] = assay: Antiproliferative activity against human RPE cells expressing C67V mutant PLK1 assessed as reduction in cell viability upto 120 uM after 72 hrs by MTT assay; assay type: functional, cell-based
[11] = molecular target: T1, Serine/threonine-protein kinase PLK1; assay: Induction of PLK1 degradation in human DU-145 cells measured for 23 hrs by Western blot analysis; assay type: cell-based; details: dose 10-45 µM
[12] = molecular target: T1, Serine/threonine-protein kinase PLK1; assay: Induction of PLK1 degradation in human PC-3 cells measured for 23 hrs by Western blot analysis; assay type: cell-based
[13] = molecular target: T1, Serine/threonine-protein kinase PLK1; assay: Inhibition of PLK1 in human PC-3 cells assessed as reduction in phosphorylation of TCTP at ser46 measured after 23 hrs by immunoblotting analysis; assay type: cell-based
[14] = molecular target: T1, Serine/threonine-protein kinase PLK1; assay: Induction of PLK1 degradation in human PC-3 cells at 10 uM measured for 23 hrs by Western blot analysis relative to control; assay type: cell-based
[15] = molecular target: T1, Serine/threonine-protein kinase PLK1; assay: Induction of PLK1 degradation in human PC-3 cells at 30 uM measured for 23 hrs by Western blot analysis relative to control; assay type: cell-based
[16] = molecular target: T1, Serine/threonine-protein kinase PLK1; assay: Induction of PLK1 degradation in human PC-3 cells at 45 uM measured for 23 hrs by Western blot analysis relative to control; assay type: cell-based
[17] = molecular target: T1, Serine/threonine-protein kinase PLK1; assay: Induction of PLK1 degradation in human PC-3 cells at 10 uM pretreated with proteosome inhibitor MG132 for 1 hr followed by compound addition and measured after 23 hrs by Western blot analysis relative to control; assay type: cell-based; parameters: scale not given: the % may be the effect or the level left
[18] = molecular target: T1, Serine/threonine-protein kinase PLK1; assay: Induction of PLK1 degradation in human PC-3 cells at 30 uM pretreated with proteosome inhibitor MG132 for 1 hr followed by compound addition and measured after 23 hrs by Western blot analysis relative to control; assay type: cell-based; parameters: scale not given: the % may be the effect or the level left
[19] = molecular target: T1, Serine/threonine-protein kinase PLK1; assay: Induction of PLK1 degradation in human PC-3 cells at 45 uM pretreated with proteosome inhibitor MG132 for 1 hr followed by compound addition and measured after 23 hrs by Western blot analysis relative to control; assay type: cell-based; parameters: scale not given: the % may be the effect or the level left
[20] = molecular target: T1, Serine/threonine-protein kinase PLK1; assay: Induction of PLK1 degradation in human PC-3 cells measured after 23 hrs in presence of colcemid by Western blot analysis; assay type: cell-based; details: dose 10-45 µM
PC-3 [21] = assay: Induction of cell cycle arrest in human PC-3 cells at 10 to 45 uM incubated for 23 hrs by flow cytometry analysis; assay type: functional, cell-based; details: dose 10-45 µM
PC-3 [22] = assay: Induction of cell cycle arrest in human PC-3 cells assessed as reduction in G2/M phase at 45 uM incubated for 23 hrs in presence of colcemid by flow cytometry analysis (reference value: 67%); assay type: functional; parameters: scale not given: the % may be the effect or the level left

| Compound | IC50 [1] [µM] | IC50 (HeLa) [µM] | IC50 (PC-3 [2]) [µM] | other results |
| --- | --- | --- | --- | --- |
| CCCCCCCCOc1ccc(C(=O)Nc2ccc(C)cc2C(=O)O)cc1 | 28.6 | – | 21.8 | – |
| CCCCCCCSc1ccc(C(=O)Nc2ccccc2C(=O)O)cc1 | 29 | – | 27.9 | – |
| CCCCCCCCNc1ccc(C(=O)Nc2ccc(C)cc2C(=O)O)cc1 | 73.2 | – | 36.4 | – |
| CCCCCCCCNc1ccc(C(=O)Nc2cc(C)ccc2C(=O)O)cc1 | 27.1 | – | 20 | – |
| CCCCCCCCCCCCc1ccc(C(=O)Nc2ccc(C)cc2C(=O)O)cc1 | 26.1 | 10.7 | 16.5 | Activity (HRPE [3]): Active; Activity (HRPE [4]): Active |
| CCCCCCCCCc1ccc(C(=O)Nc2ccc(C)cc2C(=O)O)cc1 | 33.8 | 21.6 | 30 | – |
| CCCCCCCCCc1ccc(C(=O)Nc2ccc(C)cc2C(=O)OC)cc1 | > 600 | – | – | – |
| CCCCCCCCc1ccc(C(=O)Nc2ccc(C(F)(F)F)cc2C(=O)O)cc1 | – | 10.5 | 14.2 | – |
| CCCCCCCCCc1ccc(C(=O)Nc2cc(C)ccc2C(=O)OC)cc1 | > 600 | > 120 | > 120 | Activity ([5]; time 130.0 min): inactive; Activity (HRPE [6]): inactive; inhibition [7]: inactive; Activity [8]: inactive; Activity (PC-3 [9]): inactive; Activity (HRPE [10]): inactive |
| Cc1ccc(C(=O)O)c(NC(=O)c2ccc(N)cc2)c1 | > 600 | > 120 | > 120 | – |
| CCCCCCCCSc1ccc(C(=O)Nc2ccc(C)cc2C(=O)O)cc1 | 26.8 | 12 | 15 | Activity [11]: Dose-Dependent Effect; Activity [12]: Dose-Dependent Effect; EC50 [5]: 0.65 µM; inhibition [13]: Active; Activity [14]: 30%; Activity [15]: 5%; Activity [16]: 7%; Activity [17]: 64%; Activity [18]: 25%; Activity [19]: 16%; inhibition [7]: Active; Activity [20]: Dose-Dependent Effect; Activity (PC-3 [21]): inactive; Activity (PC-3 [22]): 20% |
| CCCCCCCOc1ccc(C(=O)Nc2ccc(C)cc2C(=O)O)cc1 | 34.4 | 31.3 | 43 | – |
| CCCCCCCOc1ccc(C(=O)Nc2ccccc2C(=O)O)cc1 | 37 | – | 30 | – |
| CCCCCCCCCc1ccc(C(=O)Nc2cc(C)ccc2C(=O)O)cc1 | 28 | – | 18.2 | – |
| CCCCCCCCCCCCc1ccc(C(=O)Nc2cc(C)ccc2C(=O)O)cc1 | 25.5 | – | 17 | – |

The next lines start with results.

| IC50 [1] [µM] | IC50 (HeLa) [µM] | IC50 (PC-3 [2]) [µM] | Compound | other results |
| --- | --- | --- | --- | --- |
| 29.8 | 19.3 | – | CCCCCCCCOc1ccc(C(=O)Nc2cc(C)ccc2C(=O)O)cc1 | – |
| 87.4 | – | 41.3 | CCCCCCCNc1ccc(C(=O)Nc2ccccc2C(=O)O)cc1 | – |
| 23.4 | 9.4 | 14.3 | CCCCCCCSc1ccc(C(=O)Nc2ccc(C)cc2C(=O)O)cc1 | Activity (HRPE [3]): Active; Activity (HRPE [4]): Active |
| 42 | 18.7 | 31.3 | CCCCCCCNc1ccc(C(=O)Nc2ccc(C)cc2C(=O)O)cc1 | – |
| 28.1 | – | 26 | CCCCCCCCSc1ccc(C(=O)Nc2cc(C)ccc2C(=O)O)cc1 | – |
| 23.8 | 15.5 | 22.8 | CCCCCCCCCCc1ccc(C(=O)Nc2ccc(C)cc2C(=O)O)cc1 | – |
